Earlier results in patent publication EP0114993B1, “Renin inhibitory tripeptides” (Merck & Co., Inc., priority 1982, dated 1990).

Test system: hog renin
Conditions: after the injection of hog renin into nephrectomized rats; Gross et al., Science 175:656, 1971

In the case of pepstatin, the “blood pressure in vivo” value is listed as “reduce blood pressure”.
